The text below walks through data of patent US20250154144A1 (CHILDREN'S HOSPITAL MEDICAL CENTER, priority 2021, published 2025).

As usually defined, the IC50 is the concentration that inhibits the measured activity by half.

Structures are written as SMILES. Read-outs that look alike come from different tables or passages of the source. Where only a bound is given, the exact number is not on record here.

For one assay, the system named is MOLM14 F691L cells. The assay is described as follows: cells. It counts as cell-based. The following applies: 48 hours, Cell Titer Glo, read-out: MOLM14 F691L IC50. On the technique in general: Cellular ATP, detected with luciferase, serves as a proxy for viable cell number.
For the next assay, the target named is T1, IRAK4 (Homo sapiens, UniProt Q9NWZ3).
T1 sequence (Q9NWZ3 1-460): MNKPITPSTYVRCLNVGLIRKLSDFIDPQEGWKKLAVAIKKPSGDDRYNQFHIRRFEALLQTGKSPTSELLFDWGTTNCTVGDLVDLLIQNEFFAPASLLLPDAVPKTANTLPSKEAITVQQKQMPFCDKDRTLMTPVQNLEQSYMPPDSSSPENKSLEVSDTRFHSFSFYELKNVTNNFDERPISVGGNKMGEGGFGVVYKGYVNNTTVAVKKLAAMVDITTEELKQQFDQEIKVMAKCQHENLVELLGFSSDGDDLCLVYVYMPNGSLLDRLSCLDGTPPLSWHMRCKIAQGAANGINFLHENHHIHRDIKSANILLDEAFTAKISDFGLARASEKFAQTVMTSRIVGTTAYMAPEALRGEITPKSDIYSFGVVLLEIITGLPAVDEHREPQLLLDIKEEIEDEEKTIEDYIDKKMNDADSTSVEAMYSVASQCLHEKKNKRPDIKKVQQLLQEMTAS
The assay is described as follows: RBC HotSpot Kinase Assay, IRAK4. The following applies: IRAK4 IC50.

A further assay has as its system MOLM14 D835Y cells. The assay is described as follows: cells. It counts as cell-based. The following applies: 48 hours, Cell Titer Glo, read-out: MOLM14 D835Y IC50.
The target in a further assay is T2, FLT3 (Homo sapiens, UniProt P36888).
T2 sequence (P36888 610-943 limits assumed): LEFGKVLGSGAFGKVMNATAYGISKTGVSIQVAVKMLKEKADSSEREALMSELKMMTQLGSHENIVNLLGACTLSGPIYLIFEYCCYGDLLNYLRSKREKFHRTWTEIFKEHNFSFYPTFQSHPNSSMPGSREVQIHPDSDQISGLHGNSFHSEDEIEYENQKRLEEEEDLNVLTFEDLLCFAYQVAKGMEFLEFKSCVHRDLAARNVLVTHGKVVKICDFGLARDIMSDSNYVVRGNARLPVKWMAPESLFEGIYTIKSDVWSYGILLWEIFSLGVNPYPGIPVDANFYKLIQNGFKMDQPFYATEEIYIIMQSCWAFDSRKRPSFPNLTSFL
The assay is described as follows: RBC HotSpot Kinase Assay, FLT3.

The next assay addresses IRAK1 (Homo sapiens, UniProt P51617). The assay is described as follows: RBC HotSpot Kinase Assay, IRAK1. The following applies: IRAK1 IC50.

IRAK1, sequence (P51617 whole entry): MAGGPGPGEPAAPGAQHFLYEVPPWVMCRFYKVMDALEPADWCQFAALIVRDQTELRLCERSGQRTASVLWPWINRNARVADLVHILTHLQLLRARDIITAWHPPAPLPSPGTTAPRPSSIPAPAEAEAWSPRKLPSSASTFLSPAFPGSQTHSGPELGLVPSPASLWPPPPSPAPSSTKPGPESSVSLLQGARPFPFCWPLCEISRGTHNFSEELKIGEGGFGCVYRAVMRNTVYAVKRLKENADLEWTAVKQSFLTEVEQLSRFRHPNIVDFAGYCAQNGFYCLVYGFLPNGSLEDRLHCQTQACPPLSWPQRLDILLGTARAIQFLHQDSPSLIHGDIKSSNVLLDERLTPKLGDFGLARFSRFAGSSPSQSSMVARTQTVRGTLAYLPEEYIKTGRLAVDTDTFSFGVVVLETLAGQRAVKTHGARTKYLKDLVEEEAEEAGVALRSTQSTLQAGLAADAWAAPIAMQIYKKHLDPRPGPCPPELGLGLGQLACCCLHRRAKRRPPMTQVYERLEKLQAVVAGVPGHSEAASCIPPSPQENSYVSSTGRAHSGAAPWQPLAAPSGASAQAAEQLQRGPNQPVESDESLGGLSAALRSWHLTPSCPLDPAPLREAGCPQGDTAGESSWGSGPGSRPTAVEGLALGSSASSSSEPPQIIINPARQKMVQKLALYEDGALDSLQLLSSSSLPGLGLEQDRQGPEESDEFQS

In the case of `CC(O)(c1cn2c(-c3cncc(N[C@@H]4CCCNC4)n3)cnc2cn1)C(F)(F)F` (single isomer, unassigned) [Compound 74], the IC50 in the assay on MOLM14 F691L cells came to 344 nM; at IRAK4, 4 nM; in the assay with MOLM14 D835Y cells, 217 nM; on FLT3 (FLT3 IC50) it was 3 nM; at IRAK1 it was 29 nM.
Turning to `CC(O)(c1cn2c(-c3cncc(N[C@H]4CNC[C@@H]4F)n3)cnc2cn1)C(F)(F)F` (single isomer, unassigned) [Compound 75], the IC50 in the assay on MOLM14 F691L cells (Homo sapiens, MOLM-14, 48 h) was found to be 1720 nM; on IRAK4, 40 nM; in the assay on MOLM14 D835Y cells (Homo sapiens, MOLM-14, 48 h), 1090 nM; against FLT3 (FLT3 IC50) it was 9 nM; against IRAK1 it was 262 nM.
As to `CC(O)(c1cn2c(-c3cncc(N[C@H]4CNC[C@@H]4F)n3)cnc2cn1)C(F)(F)F` (single isomer, unassigned) [Compound 77], the IC50 with MOLM14 F691L cells amounted to 1930 nM; against IRAK4 it was 4 nM; with MOLM14 D835Y cells, 686 nM; at FLT3 (FLT3 IC50), 7 nM; against IRAK1, 89 nM.
On to `CC(O)(c1cn2c(-c3cncc(N[C@H]4CNCC[C@@H]4F)n3)cnc2cn1)C(F)(F)F` (single isomer, unassigned) [Compound 78], for which the IC50 in the assay with MOLM14 F691L cells is 386 nM; against IRAK4, below 0.5 nM; with MOLM14 D835Y cells, 193 nM; on FLT3 (read-out: FLT3 IC50), below 0.5 nM; against IRAK1 it was 7 nM.
Turning to `CC(C)Oc1ccn2c(-c3cncc(N[C@@H]4CCCNC4)n3)cnc2c1` [Compound 1, 6-(7-isopropoxyimidazo[1,2-a]pyridin-3-yl)-N-[(3R)-3-piperidyl]pyrazin-2-amine], the IC50 was 73 nM with MOLM14 F691L cells (Homo sapiens, MOLM-14, 48 h); 2 nM against IRAK4; 37 nM in the assay with MOLM14 D835Y cells (Homo sapiens, MOLM-14, 48 h); below 0.5 nM against FLT3 (FLT3 IC50); 111 nM at IRAK1.
Turning to `COc1ccn2c(-c3cncc(N[C@H]4CNC[C@@H]4F)n3)cnc2c1` [Compound 4, N-((3S,4S)-4-fluoropyrrolidin-3-yl)-6-(7-methoxyimidazo[1,2-a]pyridin-3-yl)pyrazin-2-amine], the IC50 with MOLM14 F691L cells (Homo sapiens, MOLM-14, 48 h) is 244 nM; against IRAK4, 2 nM; in the assay on MOLM14 D835Y cells (Homo sapiens, MOLM-14, 48 h), 77 nM; against FLT3 (FLT3 IC50), below 0.5 nM; at IRAK1 it was 29 nM.
For `FC(F)COc1ccn2c(-c3cncc(N[C@H]4CNC[C@@H]4F)n3)cnc2c1` [Compound 7] the same measures were 217 nM, 4 nM, 69 nM, below 0.5 nM and 85 nM.
For `FC(F)COc1ccn2c(-c3cncc(N[C@@H]4CCCNC4)n3)cnc2c1` [Compound 8, (R)-6-(7-(2,2-difluoroethoxy)imidazo[1,2-a]pyridin-3-yl)-N-(piperidin-3-yl)pyrazin-2-amine], the IC50 in the assay on MOLM14 F691L cells (Homo sapiens, MOLM-14, 48 h) is 39 nM; against IRAK4, below 0.5 nM; in the assay on MOLM14 D835Y cells (Homo sapiens, MOLM-14, 48 h) it was 14 nM; against FLT3 (FLT3 IC50), below 0.5 nM; against IRAK1, 42 nM.
Regarding `F[C@H]1CNC[C@@H]1Nc1cncc(-c2cnc3cc(OC4CC4)ccn23)n1` [Compound 10, 6-(7-cyclopropoxyimidazo[1,2-a]pyridin-3-yl)-N-((3S,4S)-4-fluoropyrrolidin-3-yl)pyrazin-2-amine], the concentration for half-maximal inhibition (IC50) was 770 nM in the assay on MOLM14 F691L cells (Homo sapiens, MOLM-14, 48 h); 9 nM on IRAK4; 244 nM in the assay on MOLM14 D835Y cells (Homo sapiens, MOLM-14, 48 h); below 0.5 nM against FLT3 (FLT3 IC50); 24 nM against IRAK1.
For `c1cn2c(-c3cncc(N[C@@H]4CCCNC4)n3)cnc2cc1OC1CC1` [Compound 11, (R)-6-(7-cyclopropoxyimidazo[1,2-a]pyridin-3-yl)-N-(piperidin-3-yl)pyrazin-2-amine] the same measures were 109 nM, 5 nM, 43 nM, below 0.5 nM and 85 nM.
The matching figures for `FC(F)Oc1ccn2c(-c3cncc(N[C@H]4CNC[C@@H]4F)n3)cnc2c1` [Compound 13, 6-(7-(difluoromethoxy)imidazo [1,2-a]pyridin-3-yl)-N-((3S,4S)-4-fluoropyrrolidin-3-yl)pyrazin-2-amine]: 864 nM, 21 nM, 307 nM, 1 nM and 86 nM.
For the molecule `FC(F)Oc1ccn2c(-c3cncc(N[C@@H]4CCCNC4)n3)cnc2c1` [Compound 14, (R)-6-(7-(difluoromethoxy)imidazo [1,2-a]pyridin-3-yl)-N-(piperidin-3-yl)pyrazin-2-amine], the IC50 turned out to be 193 nM with MOLM14 F691L cells (Homo sapiens, MOLM-14, 48 h); 12 nM against IRAK4; 86 nM in the assay on MOLM14 D835Y cells (Homo sapiens, MOLM-14, 48 h); 0.8 nM on FLT3 (FLT3 IC50); 447 nM against IRAK1.
The matching figures for `COc1cc2ncc(-c3cncc(N[C@H]4CNC[C@@H]4F)n3)n2cc1C(C)(C)O` [Compound 19, 2-(3-(6-(((3S,4S)-4-fluoropyrrolidin-3-yl)amino)pyrazin-2-yl)-7-methoxyimidazo[1,2-a]pyridin-6-yl)propan-2-ol]: 193 nM, 0.8 nM, 109 nM, below 0.5 nM and 3 nM.
For `COc1cc2ncc(-c3cncc(N[C@@H]4CCCNC4)n3)n2cc1C(C)(C)O` [Compound 20, (R)-2-(7-methoxy-3-(6-(piperidin-3-ylamino)pyrazin-2-yl)imidazo[1,2-a]pyridin-6-yl)propan-2-ol], the IC50 was 61 nM in the assay on MOLM14 F691L cells (Homo sapiens, MOLM-14, 48 h); 1 nM at IRAK4; 43 nM with MOLM14 D835Y cells (Homo sapiens, MOLM-14, 48 h); below 0.5 nM against FLT3 (FLT3 IC50); 5 nM at IRAK1.
Consider `COc1ccn2c(-c3ccnc(N[C@@H]4CCCNC4)n3)cnc2c1` [Compound 29, (R)-4-(7-methoxyimidazo[1,2-a]pyridin-3-yl)-N-(piperidin-3-yl)pyrimidin-2-amine], for which the IC50 is 109 nM with MOLM14 F691L cells (Homo sapiens, MOLM-14, 48 h); below 0.5 nM against IRAK4; 12 nM with MOLM14 D835Y cells (Homo sapiens, MOLM-14, 48 h); below 0.5 nM on FLT3 (FLT3 IC50); 13 nM at IRAK1.
On to `FC(F)COc1ccn2c(-c3ccnc(N[C@H]4CNC[C@@H]4F)n3)cnc2c1` [Compound 31, 4-(7-(2,2-difluoroethoxy)imidazo[1,2-a]pyridin-3-yl)-N-((3S,4S)-4-fluoropyrrolidin-3-yl)pyrimidin-2-amine], for which the IC50 with MOLM14 F691L cells (Homo sapiens, MOLM-14, 48 h) is 344 nM; at IRAK4, 0.7 nM; in the assay on MOLM14 D835Y cells (Homo sapiens, MOLM-14, 48 h), 15 nM; against FLT3 (FLT3 IC50) it was below 0.5 nM; against IRAK1 it was 9 nM.
The matching figures for `FC(F)COc1ccn2c(-c3ccnc(N[C@@H]4CCCNC4)n3)cnc2c1` [Compound 32, (R)-4-(7-(2,2-difluoroethoxy)imidazo[1,2-a]pyridin-3-yl)-N-(piperidin-3-yl)pyrimidin-2-amine]: 77 nM, 2 nM, 7 nM, below 0.5 nM and 45 nM.
The matching figures for `FC(F)Oc1ccn2c(-c3ccnc(N[C@H]4CNC[C@@H]4F)n3)cnc2c1` [Compound 34, 4-(7-(difluoromethoxy)imidazo[1,2-a]pyridin-3-yl)-N-((3S,4S)-4-fluoropyrrolidin-3-yl)pyrimidin-2-amine]: 1090 nM, 5 nM, 86 nM, below 0.5 nM and 10 nM.
Take `FC(F)Oc1ccn2c(-c3ccnc(N[C@@H]4CCCNC4)n3)cnc2c1` [Compound 35, (R)-4-(7-(difluoromethoxy)imidazo[1,2-a]pyridin-3-yl)-N-(piperidin-3-yl)pyrimidin-2-amine]: the IC50 in the assay with MOLM14 F691L cells (Homo sapiens, MOLM-14, 48 h) was 433 nM; against IRAK4, 27 nM; in the assay on MOLM14 D835Y cells (Homo sapiens, MOLM-14, 48 h), 39 nM; at FLT3 (FLT3 IC50), below 0.5 nM; at IRAK1, 120 nM.
As for `FC(F)Oc1ccn2c(-c3ccnc(N[C@H]4CNCC[C@@H]4F)n3)cnc2c1` [Compound 36, 4-(7-(difluoromethoxy)imidazo[1,2-a]pyridin-3-yl)-N-((3S,4S)-4-fluoropiperidin-3-yl)pyrimidin-2-amine], the IC50 in the assay on MOLM14 F691L cells (Homo sapiens, MOLM-14, 48 h) is 307 nM; at IRAK4, 3 nM; in the assay with MOLM14 D835Y cells (Homo sapiens, MOLM-14, 48 h), 43 nM; at FLT3 (FLT3 IC50), below 0.5 nM; at IRAK1 it was 17 nM.
